How the values were obtained:
Type in all cases: in vivo, rat
[1] = system: male spontaneously hypertensive rats (SHR); assay: Pharmacological Test-1: blood pressure after oral administration in spontaneously hypertensive rats; conditions: for Blood Pressure (mmHg) 1 hr. / Blood Pressure (mmHg) 3 hrs. / Blood Pressure (mmHg) 6 hrs. / Blood Pressure (mmHg) 9 hrs. / Blood Pressure (mmHg) 12 hrs.: oral; for Blood Pressure (mmHg) 1 hr.: variation of blood pressure 1 hr. after administration; for Blood Pressure (mmHg) 3 hrs.: variation of blood pressure 3 hrs. after administration; for Blood Pressure (mmHg) 6 hrs.: variation of blood pressure 6 hrs. after administration; for blood pressure depression, result in words / lapse of time until approximately maximum blood pressure depression: summary of Table 1; for Blood Pressure (mmHg) 9 hrs.: variation of blood pressure 9 hrs. after administration; for Blood Pressure (mmHg) 12 hrs.: variation of blood pressure 12 hrs. after administration
Experimental: (§1) This test was performed using male spontaneously hypertensive rats (SHR, 15 weeks old or older, 300 to 400 g). Under halothane anesthesia, the left femoral arteries of the rats were cannulated using a polyethylene cannula. The cannula was connected to a device for blood pressure measurement. Then, the rats were placed in the Bollman-type cages. After one hour, it was confirmed that the blood pressure was kept constant. When the rats waked, they were orally administered with the test compound, and variation of blood pressure after the administration was measured as time passed. The test compound was suspended or dissolved in 1% aqueous methylcellulose solution and administered in an amount of 0.2 mL per 100 g of body weight.

[2] = system: male Dahl salt sensitive male rats (DahlSR); assay: Pharmacological Test-3: blood pressure after oral administration in Dahl salt sensitive rats; conditions: 3 mg/kg; for Blood Pressure (mmHg) 1 hr.: 1 hr. after administration; for Blood Pressure (mmHg) 3 hrs.: 3 hrs. after administration; for Blood Pressure (mmHg) 6 hrs.: 6 hrs. after administration; for Blood Pressure (mmHg) 9 hrs.: 9 hrs. after administration; for Blood Pressure (mmHg) 12 hrs.: 12 hrs. after administration
Experimental: as §1
This test was performed in the same manner as in the above pharmacological test-1 using male Dahl salt sensitive male rats (DahlSR, 15 weeks old or older, 300 to 400 g, not-fasted). The compound of the invention examined in this test was the same as that employed in the pharmacological test-1.

[3] = system: male DOCA salt hypertensive rats (DOCAR); assay: Pharmacological Test-2: blood pressure after oral administration in DOCA salt hypertensive rats; conditions: for Blood Pressure (mmHg) 1 hr. / Blood Pressure (mmHg) 3 hrs. / Blood Pressure (mmHg) 6 hrs. / Blood Pressure (mmHg) 9 hrs. / Blood Pressure (mmHg) 12 hrs.: DOCA salt hypertensive rats, oral, 3 mg/kg; for Blood Pressure (mmHg) 1 hr.: 1 hr. after administration; for Blood Pressure (mmHg) 3 hrs.: 3 hrs. after administration; for Blood Pressure (mmHg) 6 hrs.: 6 hrs. after administration; for Blood Pressure (mmHg) 9 hrs.: 9 hrs. after administration; for Blood Pressure (mmHg) 12 hrs.: 12 hrs. after administration; for lapse of time until approximately maximum blood pressure depression: summary of 'Tables 1 and 2' as printed after Table 3
Experimental: as §1
This test was performed by measuring the blood pressure in the same manner as in the above pharmacological test-1 using male DOCA salt hypertensive rats (DOCAR, 15 weeks old or older, 300 to 400 g, not-fasted). The test results are set forth in Table 2.The compound of the invention examined in this test was the same as that employed in the pharmacological test-1.

[4] = system: normal male rats of Wister strain; assay: Pharmacological Test-4: blood pressure after oral administration in normal rats; conditions: for Blood Pressure (mmHg) 1 hr. / Blood Pressure (mmHg) 3 hrs. / Blood Pressure (mmHg) 6 hrs. / Blood Pressure (mmHg) 9 hrs. / Blood Pressure (mmHg) 12 hrs.: oral; for Blood Pressure (mmHg) 1 hr.: 1 hr. after administration; for Blood Pressure (mmHg) 3 hrs.: 3 hrs. after administration; for Blood Pressure (mmHg) 6 hrs.: 6 hrs. after administration; for Blood Pressure (mmHg) 9 hrs.: 9 hrs. after administration; for Blood Pressure (mmHg) 12 hrs.: 12 hrs. after administration; for effect on normal blood pressure, result in words: summary of Table 4
Experimental: as §1
This test was performed by measuring the blood pressure in the same manner as in the above pharmacological test-1 using normal male rats of Wister strain (15 weeks old or older, 300 to 400 g, not-fasted). The test results are set forth in Table 4.The compound of the invention examined in this test was the same as that employed in the pharmacological test-1.

Row | Structure (SMILES) | Blood Pressure (mmHg) 1 hr. ([1]; 1 mg/kg) | Blood Pressure (mmHg) 3 hrs. ([1]; 1 mg/kg) | Blood Pressure (mmHg) 6 hrs. ([1]; 1 mg/kg) | Blood Pressure (mmHg) 1 hr. ([1]; 3 mg/kg) | Blood Pressure (mmHg) 3 hrs. ([1]; 3 mg/kg) | Blood Pressure (mmHg) 6 hrs. ([1]; 3 mg/kg) | blood pressure depression, result in words [1] | Blood Pressure (mmHg) 9 hrs. ([1]; 1 mg/kg) | Blood Pressure (mmHg) 12 hrs. ([1]; 1 mg/kg) | Blood Pressure (mmHg) 9 hrs. ([1]; 3 mg/kg) | Blood Pressure (mmHg) 12 hrs. ([1]; 3 mg/kg) | lapse of time until approximately maximum blood pressure depression [1] | Blood Pressure (mmHg) 1 hr. [2] | Blood Pressure (mmHg) 3 hrs. [2] | Blood Pressure (mmHg) 1 hr. ([4]; 3 mg/kg) | Blood Pressure (mmHg) 3 hrs. ([4]; 3 mg/kg) | Blood Pressure (mmHg) 6 hrs. ([4]; 3 mg/kg) | Blood Pressure (mmHg) 9 hrs. ([4]; 3 mg/kg) | Blood Pressure (mmHg) 12 hrs. ([4]; 3 mg/kg) | effect on normal blood pressure, result in words [4] | other results
1 | COc1cc2nc(N3CCN(C(=O)c4ccc(O)cc4)CC3)nc(N)c2cc1OC.Cl [Comp. [D], 4-amino-2-[4-(4-hydroxybenzoyl)-1-piperazinyl]-6,7-dimethoxyquinazoline hydrochloride] | 2 mmHg | −3 mmHg | −6 mmHg | −5 mmHg | −6 mmHg | −8 mmHg | very little blood pressure depression |  |  |  |  |  |  |  |  |  |  |  |  |  | 
2 | COc1cc2nc(N3CCN(C(=O)c4ccco4)CC3)nc(N)c2cc1OC.Cl [Prazo., prazosin hydrochloride] | −35 mmHg | −41 mmHg | −42 mmHg | −57 mmHg | −69 mmHg | −65 mmHg |  | −41 mmHg | −38 mmHg | −61 mmHg | −60 mmHg | one hour | −48 mmHg | −41 mmHg | −44 mmHg | −40 mmHg | −33 mmHg | −33 mmHg | −43 mmHg | largely decrease normal blood pressure | Blood Pressure (mmHg) 6 hrs. [2]: −43 mmHg; Blood Pressure (mmHg) 9 hrs. [2]: −40 mmHg; Blood Pressure (mmHg) 12 hrs. [2]: −36 mmHg; Blood Pressure (mmHg) 1 hr. [3]: −81 mmHg; Blood Pressure (mmHg) 3 hrs. [3]: −62 mmHg; Blood Pressure (mmHg) 6 hrs. [3]: −69 mmHg; Blood Pressure (mmHg) 9 hrs. [3]: −50 mmHg; Blood Pressure (mmHg) 12 hrs. [3]: −36 mmHg; lapse of time until approximately maximum blood pressure depression [3]: one to two hours; Blood Pressure (mmHg) 1 hr. ([4]; 1 mg/kg): −27 mmHg; Blood Pressure (mmHg) 3 hrs. ([4]; 1 mg/kg): −21 mmHg; Blood Pressure (mmHg) 6 hrs. ([4]; 1 mg/kg): −23 mmHg; Blood Pressure (mmHg) 9 hrs. ([4]; 1 mg/kg): −23 mmHg; Blood Pressure (mmHg) 12 hrs. ([4]; 1 mg/kg): −24 mmHg
3 | COc1cc2nc(N3CCN(C(=O)c4ccccc4)CC3)nc(N)c2cc1OC.Cl [Comp. [C], 4-amino-2-(4-benzoyl-1-piperazinyl)-6,7-dimethoxyquinazoline hydrochloride] | −36 mmHg | −31 mmHg | −39 mmHg | −64 mmHg | −64 mmHg | −61 mmHg |  |  |  |  |  | one hour |  |  |  |  |  |  |  |  | 
4 | COc1cc2nc(N3CCN(C(=O)c4cc(C(C)(C)C)c(O)c(C(C)(C)C)c4)CC3)nc(N)c2cc1OC.Cl [Invention, 4-amino-2-[4-(3,5-di-t-butyl-4-hydroxybenzoyl)-1-piperazinyl]-6,7-dimethoxyquinazoline hydrochloride] | −4 mmHg | −25 mmHg | −41 mmHg | −29 mmHg | −60 mmHg | −75 mmHg | slowly decreases the blood pressure | −44 mmHg | −39 mmHg | −64 mmHg | −60 mmHg | six hours | −11 mmHg | −25 mmHg | −5 mmHg | −9 mmHg | −19 mmHg | −21 mmHg | −24 mmHg | affects the normal blood pressure only slightly | Blood Pressure (mmHg) 6 hrs. [2]: −49 mmHg; Blood Pressure (mmHg) 9 hrs. [2]: −50 mmHg; Blood Pressure (mmHg) 12 hrs. [2]: −52 mmHg; Blood Pressure (mmHg) 1 hr. [3]: −15 mmHg; Blood Pressure (mmHg) 3 hrs. [3]: −42 mmHg; Blood Pressure (mmHg) 6 hrs. [3]: −62 mmHg; Blood Pressure (mmHg) 9 hrs. [3]: −49 mmHg; Blood Pressure (mmHg) 12 hrs. [3]: −37 mmHg; lapse of time until approximately maximum blood pressure depression [3]: six hours; Blood Pressure (mmHg) 1 hr. ([4]; 1 mg/kg): −4 mmHg; Blood Pressure (mmHg) 3 hrs. ([4]; 1 mg/kg): −11 mmHg; Blood Pressure (mmHg) 6 hrs. ([4]; 1 mg/kg): −21 mmHg; Blood Pressure (mmHg) 9 hrs. ([4]; 1 mg/kg): −22 mmHg; Blood Pressure (mmHg) 12 hrs. ([4]; 1 mg/kg): −23 mmHg
5 | COc1cc2nc(N3CCN(C(=O)C4COc5ccccc5O4)CC3)nc(N)c2cc1OC (stereo not drawn) [Doxa., doxazosin mesilate] | −19 mmHg | −21 mmHg | −19 mmHg | −35 mmHg | −32 mmHg | −29 mmHg |  |  |  |  |  |  |  |  | −24 mmHg | −19 mmHg | −20 mmHg | −22 mmHg | −23 mmHg | largely decrease normal blood pressure | Blood Pressure (mmHg) 1 hr. ([1]; 10 mg/kg): −37 mmHg; Blood Pressure (mmHg) 3 hrs. ([1]; 10 mg/kg): −50 mmHg; Blood Pressure (mmHg) 6 hrs. ([1]; 10 mg/kg): −35 mmHg

Reference: patent US6706705B1, “Quinazoline derivatives” (Nippon Chemiphar Co., Ltd., priority 1994, dated 2004)
